We go through one molecule from patent US5354749A, “Sulfonylbenzyl-substituted benzo- and pyridopyridones” (Bayer Aktiengesellschaft, priority 1992, dated 1994).

For experiment [1], the system named is angiotensin II-induced contraction of the isolated rabbit aorta. The experiment is described as follows: Inhibition of angiotensin II-induced contraction (vasoconstriction) on isolated aortic rings from rabbits in vitro. The following applies: at 3rd = submaximum agonist concentration. The method, then: Rabbits of both sexes are stunned by a blow to the neck and exsanguinated, or optionally anaesthetised with Nembutal (about 60-80 mg/kg i.v.) and sacrificed by opening the thorax. The thoracic aorta is removed, freed from adhering connective tissue and divided into ring segments 1.5 mm wide, and these are introduced individually, under an initial load of about 3.5 g, into 10 ml organ baths with carbogen-gassed Krebs-Henseleit nutrient solution thermostatically controlled at 37° C. and having the following composition: 119 mmol/l of NaCl; 2.5 mmol/l of CaCl2 ×2 H2 O; 1.2 mmol/l of KH2 PO4; 10 mmol/l of glucose; 4.8 mmol/l of KCl; 1.4 mmol/l of MgSO4 ×7 H2 O and 25 mmol/l of NaHCO3.
The contractions are recorded isometrically by Statham UC2 cells via a bridge amplifier (from Mulheim or DSM Aalen) and digitised and evaluated by means of an A/D converter (System 570, Keithley Munich). The agonist dose/effect curves (DEC) are plotted hourly. For each DEC, 3 or 4 individual concentrations are applied to the baths at intervals of 4 minutes. At the end of the DEC and the subsequent wash-out cycles (16 times for in each case about 5 seconds/minute with the abovementioned nutrient solution), a 28-minute rest or incubation phase follows, within which the contractions as a rule reach the starting value again. […]

For experiment [2], the target named is T1, Angiotensin II receptor (Bos taurus, UniProt P25104).
T1 construct: carried out on partially purified membrane fractions of bovine AC with radioactive angiotensin II; from tissue; host or cells: bovine adrenal cortex, partially purified membrane fractions
T1 sequence (P25104 1-359): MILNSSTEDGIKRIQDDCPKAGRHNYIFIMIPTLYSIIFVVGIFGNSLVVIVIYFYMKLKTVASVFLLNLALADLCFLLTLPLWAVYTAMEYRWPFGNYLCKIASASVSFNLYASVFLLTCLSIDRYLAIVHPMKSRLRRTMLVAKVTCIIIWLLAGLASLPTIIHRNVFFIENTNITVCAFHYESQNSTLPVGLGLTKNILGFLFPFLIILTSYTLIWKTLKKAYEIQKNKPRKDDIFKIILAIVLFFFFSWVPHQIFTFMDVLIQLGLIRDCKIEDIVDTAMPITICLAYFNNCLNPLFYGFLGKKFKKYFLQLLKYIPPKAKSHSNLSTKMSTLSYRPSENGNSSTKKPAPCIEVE
The experiment is described as follows: Angiotensin II receptor binding on membrane fractions of the adrenal cortex (3H-angiotensin II). Conditions: bovine adrenal cortex membranes; 3H-angiotensin II 3-5 nM; 60 minutes, room temperature. On the procedure:
Bovine adrenal cortices (AC) which are freshly removed and thoroughly freed from medulla of the capsule are comminuted in sucrose solution (0.32 M) with the aid of an Ultra-Turrax (Janke & Kunkel, Staufen i.B.) to give a coarse membrane homogenate, which is partially purified in two centrifugation steps to give membrane fractions. The investigations in receptor binding are carried out on partially purified membrane fractions of bovine AC with radioactive angiotensin II in an assay volume of 0.25 ml which contains, specifically, the partially purified membranes (50-80 μg), ^3 H-angiotensin II (3-5 nM), test buffer solution (50 mM Tris, pH 7.2) 5 mM MgCl2 and the substances to be investigated. After an incubation time of 60 minutes at room temperature, the non-bound radioactivity of the samples is separated off by means of moistened glass fibre filters (Whatman GF/C) and the bound radioactivity is measured […] in a scintillation cocktail, after the protein has been washed with ice-cold buffer solution (50 mM Tris/HCl, pH 7.4, 5% PEG 6000). The raw data were analysed with computer programs to give Ki and IC50 values (Ki : IC50 values corrected for the radioactivity used; IC50 values: concentration at which the substance to be investigated causes 50% inhibition of the specific binding of the radioligand).

pIC50, pKi: −log10 of the molar value.

For orientation: pIC50 means the negative decadic logarithm of the IC50, by convention in mol/L. Low values mean a large IC50, high ones a small IC50. Broadly, the pKi is −log10 of the Ki, conventionally taken in molar units. In turn, `CCCCc1cc2ccccc2c(=O)n1Cc1ccc(S(=O)(=O)N2CCCC2C(=O)O)cc1Cl` (centres unmarked) [Example 2, N-4-[3-Butyl-1,2-dihydro-1-oxo-isoquinolin-2-yl-methyl]3-chlorophenylsulphonylproline] showed a pIC50 in experiment [1] of 6.18. Also, in experiment [2], the pKi is 5.77.
